Results reported in patent publication US8058242B2, “Chimeric proteins with natriuretic activity” (The University of Queensland, priority 2004, dated 2011).
Positions of bridges follow the written chain, without caps; N, C: chain ends. Non-standard residues stand in square brackets, D forms with d. Residues, ends and D or L forms follow the SMILES beside them. Nle = CCCC[C@H](N)C(=O)O

Assays:
[1] = target: T1, Natriuretic Peptide Receptor-A (NPR-A) signaling in MDCK cells (Canis lupus familiaris, UniProt A0A8I3MHU3); type: cell-based, canine; settings: stimulation of cGMP accumulation in MDCK cells; for EC50: read-out: EC50 (M) ± Standard Error
T1 sequence (A0A8I3MHU3 32-1060): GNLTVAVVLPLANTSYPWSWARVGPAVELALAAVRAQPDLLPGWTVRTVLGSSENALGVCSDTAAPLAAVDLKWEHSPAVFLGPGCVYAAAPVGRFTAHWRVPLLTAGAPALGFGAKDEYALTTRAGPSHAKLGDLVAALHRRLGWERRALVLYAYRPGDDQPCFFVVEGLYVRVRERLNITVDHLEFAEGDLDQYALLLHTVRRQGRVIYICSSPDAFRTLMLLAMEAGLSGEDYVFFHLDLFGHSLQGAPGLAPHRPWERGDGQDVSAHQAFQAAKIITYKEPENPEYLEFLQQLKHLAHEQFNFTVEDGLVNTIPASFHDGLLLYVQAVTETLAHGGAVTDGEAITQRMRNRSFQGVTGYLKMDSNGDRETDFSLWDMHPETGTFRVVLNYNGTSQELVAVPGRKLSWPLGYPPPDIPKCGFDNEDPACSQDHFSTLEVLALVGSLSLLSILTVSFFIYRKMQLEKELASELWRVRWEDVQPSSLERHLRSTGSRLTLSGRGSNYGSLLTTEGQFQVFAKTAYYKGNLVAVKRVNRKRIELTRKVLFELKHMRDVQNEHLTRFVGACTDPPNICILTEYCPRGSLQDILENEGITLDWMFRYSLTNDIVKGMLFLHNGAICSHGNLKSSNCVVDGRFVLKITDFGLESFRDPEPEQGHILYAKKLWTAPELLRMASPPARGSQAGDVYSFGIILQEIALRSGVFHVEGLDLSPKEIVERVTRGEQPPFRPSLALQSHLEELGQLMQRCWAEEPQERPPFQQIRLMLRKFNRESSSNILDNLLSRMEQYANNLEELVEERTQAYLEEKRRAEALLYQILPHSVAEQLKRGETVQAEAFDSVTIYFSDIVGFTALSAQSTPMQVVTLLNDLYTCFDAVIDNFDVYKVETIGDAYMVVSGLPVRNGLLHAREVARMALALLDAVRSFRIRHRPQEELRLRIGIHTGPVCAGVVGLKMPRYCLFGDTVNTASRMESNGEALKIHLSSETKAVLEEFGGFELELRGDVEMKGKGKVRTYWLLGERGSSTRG

conscious rabbits = assay: Blood pressure and heart rate in conscious rabbits, intravenous infusion dose-response (Example 8)
[2] = after 1 hour recovery period, Table 10A

Molecule | −Log10 EC50 (pEC50) ± Standard Error [1] | EC50 [1] [M] | Recovery (MAP) (conscious rabbits; [2]) [mm Hg] | Recovery Delta SED (MAP) (conscious rabbits; [2]) [mm Hg] | reduction of MAP compared to vehicle, in words (conscious rabbits; highest dose) | MAP at final dose (conscious rabbits; highest dose, Table 10A) [mm Hg] | Treatment Effect, change of mean blood pressure during the infusion (conscious rabbits; highest dose, Table 10A, groups 1, 2A and 3) [mm Hg]
CC[C@H](C)[C@@H]1NC(=O)[C@H](CCCNC(=N)N)NC(=O)[C@H](CC(=O)O)NC(=O)[C@H](CC(C)C)NC(=O)[C@@H]2CCCN2C(=O)[C@H](Cc2ccccc2)NC(=O)CNC(=O)[C@H](Cc2ccccc2)NC(=O)[C@@H](NC(=O)CNC(=O)[C@H](CCCCN)NC(=O)[C@H](CO)NC(=O)[C@@H](NC(=O)[C@H](CCCCN)NC(=O)[C@H](CO)NC(=O)[C@H](CC(=O)O)NC(=O)[C@@H](N)CO)[C@@H](C)CC)CSSC[C@@H](C(=O)N[C@@H](CC(N)=O)C(=O)N[C@@H](CCCNC(=N)N)C(=O)N[C@H](C(=O)N[C@@H](CCSC)C(=O)N[C@@H](CCC(N)=O)C(=O)N[C@@H](CC(N)=O)C(=O)N2CCC[C@H]2C(=O)N2CCC[C@H]2C(=O)N[C@@H](CCCCN)C(=O)N[C@@H](CCCCN)C(=O)N[C@@H](Cc2ccccc2)C(=O)N[C@@H](CO)C(=O)NCC(=O)N[C@@H](CCC(=O)O)C(=O)O)[C@@H](C)CC)NC(=O)CNC(=O)[C@H](CC(C)C)NC(=O)CNC(=O)[C@H](CO)NC(=O)[C@H](C(C)C)NC(=O)[C@H](CO)NC(=O)CNC1=O [Peptide K7S6-TNPc] (H-SDSKISKGCFGFPLDRIGSVSGLGCNRIMQNPPKKFSGE-OH; disulfide 9-25; N-terminus assumed) | 7.567 ± 0.4397 | 5.24e-08 |  |  |  |  | 
CCCC[C@H](NC(=O)[C@@H](NC(=O)[C@H](CCCNC(=N)N)NC(=O)[C@H](CC(N)=O)NC(=O)[C@@H]1CSSC[C@H](NC(=O)CNC(=O)[C@H](CC(N)=O)NC(=O)CNC(=O)[C@@H](NC(=O)[C@H](CCCCN)NC(=O)[C@H](CO)NC(=O)[C@H](CC(=O)O)NC(=O)[C@@H](N)CO)[C@@H](C)CC)C(=O)N[C@@H](Cc2ccccc2)C(=O)NCC(=O)N[C@@H](Cc2ccccc2)C(=O)N2CCC[C@H]2C(=O)N[C@@H](CC(C)C)C(=O)N[C@@H](CC(=O)O)C(=O)N[C@@H](CCCNC(=N)N)C(=O)N[C@@H]([C@@H](C)CC)C(=O)NCC(=O)N[C@@H](CO)C(=O)N[C@@H](C(C)C)C(=O)N[C@@H](CO)C(=O)NCC(=O)N[C@@H](CC(C)C)C(=O)NCC(=O)N1)[C@@H](C)CC)C(=O)N[C@@H](CCC(N)=O)C(=O)N[C@@H](CC(N)=O)C(=O)N1CCC[C@H]1C(=O)N1CCC[C@H]1C(=O)N[C@@H](CCCCN)C(=O)N[C@@H](CCCCN)C(=O)N[C@@H](Cc1ccccc1)C(=O)N[C@@H](CO)C(=O)NCC(=O)N[C@@H](CCC(=O)O)C(=O)O [Nle-TNPc] (H-SDSKIGNGCFGFPLDRIGSVSGLGCNRI[Nle]QNPPKKFSGE-OH; disulfide 9-25; N-terminus assumed) | 6.497 ± 0.2017 | 3.99e-07 |  |  |  |  | 
CC[C@H](C)[C@H](NC(=O)[C@H](CCCCN)NC(=O)[C@H](CO)NC(=O)[C@H](CC(=O)O)NC(=O)[C@@H](N)CO)C(=O)NCC(=O)N[C@@H](CC(N)=O)C(=O)NCC(=O)N[C@H]1CSSC[C@@H](C(=O)N[C@@H](CC(N)=O)C(=O)N[C@@H](CCCNC(=N)N)C(=O)N[C@H](C(=O)N[C@@H](CCSC)C(=O)N[C@@H](CCC(N)=O)C(=O)N[C@@H](CC(N)=O)C(=O)N[C@@H](CCCNC(=N)N)C(=O)N2CCC[C@H]2C(=O)N[C@@H](CCCCN)C(=O)N[C@@H](CCCCN)C(=O)N[C@@H](Cc2ccccc2)C(=O)N[C@@H](CO)C(=O)NCC(=O)N[C@@H](CCC(=O)O)C(=O)O)[C@@H](C)CC)NC(=O)CNC(=O)[C@H](CC(C)C)NC(=O)CNC(=O)[C@H](CO)NC(=O)[C@H](C(C)C)NC(=O)[C@H](CO)NC(=O)CNC(=O)[C@H]([C@@H](C)CC)NC(=O)[C@H](CCCNC(=N)N)NC(=O)[C@H](CC(=O)O)NC(=O)[C@H](CC(C)C)NC(=O)[C@@H]2CCCN2C(=O)[C@H](Cc2ccccc2)NC(=O)CNC(=O)[C@H](Cc2ccccc2)NC1=O [Peptide P32R-TNPc] (H-SDSKIGNGCFGFPLDRIGSVSGLGCNRIMQNRPKKFSGE-OH; disulfide 9-25; N-terminus assumed) | 7.680 ± 0.5322 | 9.91e-08 |  |  |  |  | 
CC[C@H](C)[C@@H]1NC(=O)[C@H](CCCNC(=N)N)NC(=O)[C@H](CC(=O)O)NC(=O)[C@H](CC(C)C)NC(=O)[C@@H]2CCCN2C(=O)[C@H](Cc2ccccc2)NC(=O)CNC(=O)[C@H](Cc2ccccc2)NC(=O)[C@@H](NC(=O)CNC(=O)[C@H](C)NC(=O)[C@H](CO)NC(=O)[C@@H](NC(=O)[C@H](CCCCN)NC(=O)[C@H](CO)NC(=O)[C@H](CC(=O)O)NC(=O)[C@@H](N)CO)[C@@H](C)CC)CSSC[C@@H](C(=O)N[C@@H](CC(N)=O)C(=O)N[C@@H](CCCNC(=N)N)C(=O)N[C@H](C(=O)N[C@@H](CCSC)C(=O)N[C@@H](CCC(N)=O)C(=O)N[C@@H](CC(N)=O)C(=O)N2CCC[C@H]2C(=O)N2CCC[C@H]2C(=O)N[C@@H](CCCCN)C(=O)N[C@@H](CCCCN)C(=O)N[C@@H](Cc2ccccc2)C(=O)N[C@@H](CO)C(=O)NCC(=O)N[C@@H](CCC(=O)O)C(=O)O)[C@@H](C)CC)NC(=O)CNC(=O)[C@H](CC(C)C)NC(=O)CNC(=O)[C@H](CO)NC(=O)[C@H](C(C)C)NC(=O)[C@H](CO)NC(=O)CNC1=O [Peptide A7S6-TNPc] (H-SDSKISAGCFGFPLDRIGSVSGLGCNRIMQNPPKKFSGE-OH; disulfide 9-25; N-terminus assumed) | 6.897 ± 0.2652 | 1.69e-07 |  |  |  |  | 
CC[C@H](C)[C@@H]1NC(=O)[C@H](CCCNC(=N)N)NC(=O)[C@H](CC(=O)O)NC(=O)[C@H]([C@@H](C)CC)NC(=O)[C@H](CCCCN)NC(=O)[C@H](Cc2c[nH]cn2)NC(=O)CNC(=O)[C@H](Cc2ccccc2)NC(=O)[C@@H](NC(=O)CNC(=O)[C@H](CC(N)=O)NC(=O)[C@@H]2CCCN2C(=O)[C@@H]2CCCN2C(=O)CNC(=O)[C@H](CCCCN)NC(=O)[C@H](CCCCN)NC(=O)[C@@H]2CCCN2C(=O)[C@@H]2CCCN2C(=O)[C@H](CCCCN)NC(=O)[C@H](CC(N)=O)NC(=O)[C@H](CC(=O)O)NC(=O)CN)CSSC[C@@H](C(=O)N[C@@H](CC(N)=O)C(=O)N[C@@H](CCCCN)C(=O)N[C@H](C(=O)N[C@@H](CC(=O)O)C(=O)N[C@@H](CC(=O)O)C(=O)N[C@@H](CC(N)=O)C(=O)N[C@@H](CCCCN)C(=O)NCC(=O)O)C(C)C)NC(=O)CNC(=O)[C@H](CC(C)C)NC(=O)CNC(=O)[C@H](CO)NC(=O)[C@H](Cc2c[nH]cn2)NC(=O)[C@H](CO)NC(=O)CNC1=O [Lebetin] (H-GDNKPPKKGPPNGCFGHKIDRIGSHSGLGCNKVDDNKG-OH; disulfide 14-30; N-terminus and C-terminus assumed) | 7.637 ± 0.1619 | 2.67e-08 |  |  |  |  | 
SDSKIGNGCFGFPLDHIGSVSGLGCNRIMQNPPKKFSGE (A portion of a natriuretic peptide) [TNPc R16H] |  |  | 67.6 | 2.0 ± 3.9 | did significantly reduce MAP | 65.6 | −7.3
